Laboratory results reported in patent US9944613B2, “Fumagillol spirocyclic compounds and fused bicyclic compounds and methods of making and using same” (Zafgen, Inc., priority 2015, dated 2018).
Counter-ions that a name gives are not always drawn.

Tests used:
[1] = system: pregnant Sprague Dawley rats (embryo/fetal development); experiment: Rat embryofetal development study; format: in vivo; details: 6 mpk subcutaneously once every three days, Gestation Days 6-18, pregnant rats
Source text: Study Summary Rat Embryofetal:
The objective of this study design was to evaluate the potential effects of disclosed compounds on embryo/fetal development when given subcutaneously to pregnant rats once every three days during the critical period of organogenesis (Gestation Days 6-18). Female, Sprague Dawley rats, approximately 10 weeks of age, time bred, were ordered from a certified vendor and housed individually housed in stainless steel cages suspended over flush pans, on a 12-hour light-dark cycle (0700-1900) at 20-26° C. and 30-70% humidity. Rats were fed a standard rodent chow and provided water ad libitum. Rats were received and housed in the facility for a period of approximately 1 to 2 days.
Compounds were formulated using 100% DMSO mixed in Sterile Water for Injection, resulting in 2% DMSO solution in water. If necessary, due to limited solubility of a test article, a higher percentage of DMSO solution in water was used. Groups of 8 mated and presumed pregnant female rats were given subcutaneous doses of vehicle or test article, once every three days, beginning on Gestation Day 6 and ending on Gestation Day 18 (Days 6, 9, 12, 15, and 18), maintained two more days, and then euthanized and necropsied on Gestation Day 20. Body weights was recorded for all animals on Gestation Days 5 (purpose of randomization), 6, 9, 12, 15, 18, and 20 (scheduled euthanasia). Food consumption by weight was recorded on Gestation Days 6, 9, 12, 15, 18, and 20 (scheduled termination).
At necropsy, the dams were examined visually for external abnormalities including palpable masses. The abdominal, thoracic, and cranial cavities and their contents were examined for abnormalities and findings will be recorded. The reproductive tract were examined to record the number of ovarian corpora lutea, the number and location of uterine implantation sites noting the position of the cervix, and the number of early resorptions, late resorptions, live fetuses, and dead fetuses. For dead fetuses and late resorptions, crown-to-rump length and weight were recorded, if possible, and the fetus was discarded. For viable fetuses, weight, sex, and grossly visible external abnormalities were recorded.

[2] = system: Diet Induced Obese (DIO) C57BL/6 mice; experiment: 10 day DIO mouse model, weight loss vs. vehicle; format: in vivo; details: 240 h, 0.3 mpk sc once a day for 10 days
Source text: The objective of this study design was to investigate the efficacy of disclosed compounds in a 10 day DIO mouse model. Effects on body weight, food intake, hematology and blood chemistry were the primary readouts of this study design. Male, Diet Induced Obese (DIO) C57BL/6 mice, 19-21 weeks of age (13-15 weeks on high fat diet) were ordered from a certified vendor and upon receipt were housed on irradiated corncob bedding in micro-isolator cages on a 12-hour light-dark cycle (0700-1900) at 68-74° F. and 30-70% humidity. Mice were fed Research Diets D12492 (60% Kcal fat, 20% Kcal carbohydrate and 20% protein) and provided water ad libitum. DIO mice were received and housed in the facility for approximately two weeks prior to the start of test article administration. On Day −4 or −3, mice were randomized into study groups based on body weight and body weights were continued to be recorded daily for the duration of the study. Daily food intake was assessed starting on Study Day −2 by weighing of the food with hopper together to avoid loss of food in transfer.
(§1) Compounds were formulated into a 100% DMSO stock (at 9 mg/mL) prior to the start, and further diluted into the target working concentration using the vehicle of 10% DMSO in water. Prior to test article administration, starting on Day −3 a dosing acclimation occured with all animals receiving a subcutaneous injection of vehicle (10% DMSO) only for 3 days. Starting on Day 1, test compounds or vehicle were administered based on individual body weight, subcutaneously, once a day for 10 days. All mice were sacrificed on Day 11, 24 hours following the final dosing on Day 10. After sacrifice, whole blood was collected and analyzed for hematology and blood chemistry parameters.
(§2) Compounds were tested for weight loss vs. vehicle at 0.3 and 1.0 mpk sc (mg per kg animal weight delivered subcutaneously), and the results are shown in Table 2 below.

recombinant human MetAP2 = molecular target: T1, recombinant human MetAP2 (Homo sapiens, UniProt P50579); experiment: Inhibition of recombinant human MetAP2 activity (MAS peptide / amino acid oxidase / Amplex assay); format: biochemical; details: Flag tagged human recombinant MetAP2, 25 minutes at 25° C.; read-out: MetAP2 IC50
T1 construct: Flag; made in house
Description: Compounds are tested for their capacity to inhibit recombinant human MetAP2 activity using the following assay.
Flag tagged Human recombinant MetAP2 expressed and isolated for use as the enzyme source. 10 mM stock solutions of compounds were prepared in 100% DMSO and further diluted in 100% DMSO required concentration to 1 mM stocks. The stock compound solutions and DMSO vehicle controls were diluted to target final compound concentrations using assay buffer to a final concentration of 50 mM HEPES containing 100 mM NaCl, pH adjusted to 7.5. The MAS peptide was formulated to a 7.5 mM stock in distilled water and prior to use further diluted 1:4. […] 40 μl of enzyme was mixed with 100 μl of MnCl2 then further diluted in assay buffer to a final concentration of 16 μg/ml. To test for compound effect on MetAP2 enzyme activity, 5 μl of test compound, 10 μl of MAS substrate/amino acid oxidase mixture, 10 μl of MetAP2 was added to test wells in a 384 well black plate with blank wells containing no enzyme, replaced with 10 μl of assay buffer. All compounds were tested in duplicate on two occasions on the same day.
The plate was sealed with a TopSeal A cover and mixed briefly on an orbital mixer at 900 rpm. The plate was incubated for a further 25 minutes at 25° C. A 5× stock of Amplex buffer was prepared (0.25M sodium phosphate, pH 7.4) and stored at 4° C. When preparing for use the stock was diluted with distilled water. […] Horse radish peroxidase was diluted in […] of Amplex buffer, 100 μl of this was combined with 50 μl of Amplex Ultrared in […] of 1× Amplex buffer to generate sufficient detection reagent for a 384 well plate. 25 μl detection reagent was added to each well of the test plate, which was re-sealed and mixed briefly on an orbital shaker. The plate was transferred to an Envision Multi-label reader and RFU measured corresponding to excitation 531 nm and emission 595 nm. At the end of the MetAP2 incubation 25 μl Amplex/HRP mixture per well was added and the plate read plate on a plate reader.

[3] = system: rat DIO model (Sprague Dawley rats on high fat diet); experiment: 11 day rat DIO model, weight loss vs. vehicle; format: in vivo; details: for inhibition in vivo at 0.3 mg/kg: Rattus norvegicus, 264 h, 0.3 mpk sc once a day for 11 days
Source text: The objective of this study design is to investigate the efficacy of disclosed compounds in an 11 day rat DIO model used to screen compounds for pharmacologic efficacy on endpoints related to obesity and metabolism. Effects on body weight, food intake, hematology and blood chemistries were the primary readouts of this study design. Male Sprague Dawley rats, approximately 8 weeks of age, were ordered from a certified vendor and housed on irradiated corncob bedding in micro-isolator cages, on a 12-hour light-dark cycle (0700-1900) at 68-74° F. and 30-70% humidity. Rats were fed Research Diets D12451 (45% High Fat) and provided water ad libitum. Rats were received and housed in the facility for at least two or three weeks prior to start of test article administration. On Day −4 or −3, rats were randomized into study groups based on body weight and body weights were continued to be recorded daily for the duration of the study. Daily food intake was assessed starting on Study Day −2 by weighing the hopper including the food to avoid loss of food in transfer.
as §1, with “for 11” for “for 10”, “All animals” for “All mice”, “11, approximately 2” for “11, 24”, “Day 11.” for “Day 10.”
as §2

[4] = system: human fibrosarcoma cell line HT-1080; experiment: HT-1080 cell growth inhibition (CellTiter-Glo, 72 hours); format: cell-based; details: HT-1080 cells, 72 hours incubation
Description: The human fibrosarcoma cell line HT-1080 were grown to almost complete confluence in T75 tissue culture flasks in preparation for the experiment. The cells were trypsinised and re-suspended in complete medium using DMEM plus 9% FBS including penicillin/streptomycin supplements. 500 cells in a total volume of 25 μl were seeded into black walled 384 well plates and returned to a CO2 incubator over-night. Compounds and standards were prepared at 333.3× actual test concentration in neat DMSO. 10 point dose response curves of test compounds were generated by 1:3 serial dilutions, 2 μl of DMSO stock was transferred to 109 μl complete medium. This was further diluted 1:6 in complete medium, with 5 μl of the resulting solution added to the incubated 384 well plate. […] For experimental blanks at the start of the experiment, CellTiter-Glo was added to a satellite plate of cells (identical to the experimental plate), when adding compounds on Day 1. The average of these wells is used as the blanks in the calculation template. […] Luminescence per well was determined using an EnVision 2104 Multilabel Reader (PerkinElmer) or other suitable reader. The compound blank value recorded on Day 1 is subtracted from all other data. […] The EC50 values are determined from a sigmoidal 4 parameter curve fit using XLfit in conjunction with Activity Base (IDBS; Guildford, Surrey, UK). […]

T1 sequence (P50579 whole entry): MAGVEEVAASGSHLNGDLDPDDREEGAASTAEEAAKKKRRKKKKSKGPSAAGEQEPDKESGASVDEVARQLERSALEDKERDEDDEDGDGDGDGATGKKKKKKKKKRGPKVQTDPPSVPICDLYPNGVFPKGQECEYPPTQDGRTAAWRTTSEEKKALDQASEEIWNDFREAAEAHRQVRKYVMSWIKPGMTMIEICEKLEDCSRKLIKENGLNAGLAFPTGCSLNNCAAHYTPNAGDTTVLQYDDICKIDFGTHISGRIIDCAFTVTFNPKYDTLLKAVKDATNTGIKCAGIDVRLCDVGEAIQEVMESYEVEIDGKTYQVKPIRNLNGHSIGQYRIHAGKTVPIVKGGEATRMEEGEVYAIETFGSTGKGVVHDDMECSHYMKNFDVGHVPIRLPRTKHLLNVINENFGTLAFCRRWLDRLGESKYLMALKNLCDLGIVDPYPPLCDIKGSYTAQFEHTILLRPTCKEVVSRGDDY

Row | SMILES | Rat Embryofetal @6 mpk [1] | inhibition in vivo at 0.3 mg/kg [2] [%] | IC50 (recombinant human MetAP2) [nM] | Rat @ 1.0 mpk sc (%) ([3]; 1.0 mpk sc once a day for 11 days) | inhibition in vivo at 0.3 mg/kg [3] [%] | EC50 [4] [nM]
1 | CO[C@@H]1[C@H](OC(=O)N2CC3(COC3)C2)CC[C@]2(CO2)[C@H]1[C@@]1(C)O[C@@H]1CC=C(C)C [Example 2, (3R,4S,5S,6R)-5-methoxy-4-((2R,3R)-2-methyl-3-(3-methylbut-2-enyl)oxiran-2-yl)-1-oxaspiro[2.5]octan-6-yl 2-oxa-6-azaspiro[3.3]heptane-6-carboxylate] | Positive | 11.1 | < 50 | 10.2 | 8 | 
2 | CO[C@@H]1[C@H](OC(=O)N2CC3C(C2)C3(F)F)CC[C@]2(CO2)[C@H]1[C@@]1(C)O[C@@H]1CC=C(C)C (stereo partly drawn) [Example 22, (3R,4S,5S,6R)-5-methoxy-4-((2R,3R)-2-methyl-3-(3-methylbut-2-enyl)oxiran-2-yl)-1-oxaspiro[2.5]octan-6-yl 6,6-difluoro-3-azabicyclo[3.1.0]hexane-3-carboxylate] | Negative | 15.5 | < 50 |  |  | 
3 | CO[C@@H]1[C@H](OC(=O)N2CCC3(CCOCC3)C2)CC[C@]2(CO2)[C@H]1[C@@]1(C)O[C@@H]1CC=C(C)C [Example 27, (3R,4S,5S,6R)-5-methoxy-4-((2R,3R)-2-methyl-3-(3-methylbut-2-enyl)oxiran-2-yl)-1-oxaspiro[2.5]octan-6-yl 8-oxa-2-azaspiro[4.5]decane-2-carboxylate] | Positive | 16.3 | 50 to 500 |  |  | 
4 | CO[C@@H]1[C@H](OC(=O)N2CC3(CCN(CC(F)F)CC3)C2)CC[C@]2(CO2)[C@H]1[C@@]1(C)O[C@@H]1CC=C(C)C [Example 9, (3R,4S,5S,6R)-5-methoxy-4-((2R,3R)-2-methyl-3-(3-methylbut-2-enyl)oxiran-2-yl)-1-oxaspiro[2.5]octan-6-yl 7-(2,2-difluoroethyl)-2,7-diazaspiro[3.5]nonane-2-carboxylate formate] | Positive | 21.5 | 50 to 500 |  |  | 
5 | CO[C@@H]1[C@H](OC(=O)N2C[C@H]3CN(CC(F)F)C[C@H]3C2)CC[C@]2(CO2)[C@H]1[C@@]1(C)O[C@@H]1CC=C(C)C [Example 19, (3aR,6aS)-((3R,4S,5S,6R)-5-methoxy-4-((2R,3R)-2-methyl-3-(3-methylbut-2-enyl)oxiran-2-yl)-1-oxaspiro[2.5]octan-6-yl) 5-(2,2-difluoroethyl)hexahydropyrrolo[3,4-c]pyrrole-2(1H)-carboxylate] |  | 22.6 | 50 to 500 |  | 7.6 | 
6 | CO[C@@H]1[C@H](OC(=O)N2CCC3(COC3)C2)CC[C@]2(CO2)[C@H]1[C@@]1(C)O[C@@H]1CC=C(C)C [Example 4, (3R,4S,5S,6R)-5-methoxy-4-((2R,3R)-2-methyl-3-(3-methylbut-2-en-1-yl)oxiran-2-yl)-1-oxaspiro[2.5]octan-6-yl 2-oxa-6-azaspiro[3.4]octane-6-carboxylate] | Negative | 15.4 | < 50 |  |  | < 0.5
